In publication PMC11440508, “Dually Labeled Neurotensin NTS1R Ligands for Probing Radiochemical and Fluorescence-Based Binding Assays” (Journal of Medicinal Chemistry, 2024):

What was measured:
NTS1R [1] = molecular target: T1, NTS1R (Homo sapiens, UniProt P30989); assay: Radiochemical association and dissociation kinetics, adherent CHO-hNTS1R cells; type: binding
Experimental: (§1) Binding of both ligands, [^3H]13 and [^3H]18, was studied at adherent and suspended intact CHO-hNTS1R cells, and binding of [^3H]13 was additionally studied using CHO-hNTS1R cell membrane preparations (saturation and competition binding, kinetic studies). Furthermore, saturation binding experiments were performed with both ligands at intact adherent HT-29 cells. All experiments were performed in triplicate except for dissociation experiments performed with suspended cells in 50 mL flacon tubes (performed in duplicate). To reduce radioligand consumption in the aforementioned experiments, [^3H]13 and [^3H]18 were 1:1 diluted with 13 and 18, respectively (for the purpose of easier reading these mixtures are denoted "[^3H]13" and "[^3H]18"in the following). All samples were incubated at 23 ± 1 °C in the dark under gentle shaking (incubation times are outlined below). DPBS1 served as binding buffer throughout. In the case of experiments performed with cell suspensions, CHO-hNTS1R cells were seeded in T75 culture flasks 3–4 days prior to the experiment. On the day of the experiment, cells were detached by trypsinization, suspended in DPBS1 and centrifuged at 200g at rt for 5 min. Cells were resuspended in binding buffer and the cell density was adjusted to 1.5 × 10^5 to 2.5 × 10^5 cells/mL. Samples involving suspended cells or membrane preparations were prepared and incubated in 96-well polypropylene plates (Brand 701330, Wertheim, Germany) or in 50 mL polypropylene falcon tubes (Sarstedt), and the same filtration procedure for separating free radioligand from cell- or membrane bound radioligand was applied for all kind of binding experiments: after completed incubation, cells or cell membranes were collected on GF/C filter mats (0.26 mm; Whatman, Maidstone, U.K.) (pretreated with 0.3% polyethylenimine for 30 min) using an in-house manufactured harvester for 96-well plates (precision engineering workshop of the University of Regensburg, Regensburg, Germany), and the wells of the plate and the cells on the filter mat were immediately washed twice with ice-cold PBS (2 × 200 μL) (note: when samples were incubated in falcon tubes, 200-μL aliquots were transferred to the wells of a 96-well polypropylene plate after the incubation period, immediately followed by the filtration procedure). Filter pieces for each well were punched out and transferred into 1450–401 96-well sample plates (PerkinElmer, Rodgau, Germany), followed by the addition of Rotiscint Routine (Carl Roth, Karlsruhe, Germany) (200 μL). The plates were sealed with transparent sealing tape (Greiner EASYseal, part no. 676001, Greiner Bio-One) and shaken in the dark overnight before measurement of the radioactivity (dpm) using a MicroBeta2 plate counter equipped with six pairs of photomultiplier tubes (PerkinElmer).
For experiments involving adherent cells, CHO-hNTS1R (25,000 cells per well) or HT-29 (35,000 cells per well) cells were seeded one day prior to the experiment in white 96-well plates with clear bottom (VWR 732–3740). On the day of the experiment, the medium was aspirated and the cells (confluency: 70–90%) were washed with PBS (200 μL) followed by covering with DPBS1 (160 μL) and the addition of the ligands as outlined below. After completed incubation, the liquid was aspirated and the wells were washed twice with ice-cold PBS (200 μL) followed by the addition of lysis solution (urea (8 M), acetic acid (3 M) and Triton-X (1%) in water) (25 μL). After shaking for at least 20 min, liquid scintillator (UltimaGold, PerkinElmer) (200 μL) was added and the plates were sealed with a transparent sealing tape (permanent seal for microplates, PerkinElmer, prod. no. 1450–461). The sealed plates were turned upside down several times to achieve complete mixing of scintillator and lysis solution and were kept in the dark for at least 3 h before measurement of the radioactivity (dpm) with the MicroBeta2 plate counter. […]

NTS1R [2] = molecular target: T1, NTS1R; assay: Radiochemical association and dissociation kinetics, suspended CHO-hNTS1R cells; type: binding
Experimental: as §1
To start the association, 20 μL of an 18 nM solution of [^3H]13 or 20 μL of a 12 nM solution of [^3H]18 in DPBS1 (final concentrations: 1.8 or 1.2 nM) were added. The samples of the different time points were prepared in reversed order (longest incubation time first, shortest incubation time last) so that the cells of all samples could be harvested simultaneously. The time span for sample incubation was 1–180 min. Adherent cells: 96-well white/clear bottom plates with adherent cells were prefilled with DPBS1 (160 μL) after initial washing of the cells. […] To start the association, 20 μL of a 13 nM solution of [^3H]13 or 20 μL of an 11 nM solution of [^3H]18 in DPBS1 (final concentrations: 1.3 or 1.1 nM) were added. When the incubation time was reached, all liquid was removed by suction followed by washing (2 × ice-cold PBS) and cell lysis. The samples of the different time points were prepared in reversed order (longest incubation time first, shortest incubation time last) so that the cells of all samples could be washed and lysed simultaneously. […]

T1 sequence (P30989 whole entry): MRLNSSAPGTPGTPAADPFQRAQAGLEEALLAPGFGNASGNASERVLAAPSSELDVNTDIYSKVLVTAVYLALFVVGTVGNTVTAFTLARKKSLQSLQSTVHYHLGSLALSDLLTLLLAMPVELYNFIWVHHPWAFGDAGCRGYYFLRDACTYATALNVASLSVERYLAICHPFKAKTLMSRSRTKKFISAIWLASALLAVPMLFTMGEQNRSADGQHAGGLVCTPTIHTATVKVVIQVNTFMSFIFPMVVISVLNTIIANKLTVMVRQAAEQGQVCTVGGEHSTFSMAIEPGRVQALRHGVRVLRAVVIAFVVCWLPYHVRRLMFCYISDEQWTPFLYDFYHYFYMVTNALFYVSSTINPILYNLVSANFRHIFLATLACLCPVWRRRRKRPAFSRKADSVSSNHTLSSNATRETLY

CCC(=O)NCCCCNC(=O)NC(=N)NCCC[C@H](NC(=O)[C@@H]1CCCN1C(=O)[C@@H](NC(=O)CCc1cn(CCCNC(=O)c2ccc(-c3c4ccc(=[N+](C)C)cc-4oc4cc(N(C)C)ccc34)c(C(=O)[O-])c2)nn1)C1CCNCC1)C(=O)N[C@@H](CCCNC(=N)N)C(=O)N1CCC[C@H]1C(=O)N[C@@H](Cc1ccc(O)cc1)C(=O)N[C@H](C(=O)N[C@@H](CC(C)C)C(=O)O)[C@@H](C)CC [[^3H]13]
koff (NTS1R [1]; adherent CHO-hNTS1R cells, 23 °C, read-out: koff [min^–1] (converted)): 0.000233 s⁻¹ | kobs(slow) [min^–1] (NTS1R [1]; adherent CHO-hNTS1R cells, biphasic exponential fit): 0.011 ± 0.001 ^b min^–1 | kon (NTS1R [1]; adherent CHO-hNTS1R cells, calculated from koff, kobs(fast) and ligand concentration, read-out: kon(fast) [min^–1 nM^–1] (converted)): 5.5e+06 M⁻¹ s⁻¹ | Kd (NTS1R [1]; adherent CHO-hNTS1R cells, koff/kon(fast), read-out: Kd(kin)): 0.41 ± 0.24 nM | kobs(fast) [min^–1] (NTS1R [1]; adherent CHO-hNTS1R cells, monophasic fit of initial association phase, 1.3 nM [^3H]13 or […] [^3H]18): 0.57 ± 0.08 ^a min^–1 | Proportion of fast kinetic component (association) (NTS1R [1]; adherent cells): 19% | Proportion of slow kinetic component (association) (NTS1R [1]; adherent cells): 81% | koff (NTS1R [2]; suspended CHO-hNTS1R cells (50 mL falcon tubes), 23 °C, read-out: koff [min^–1] (converted)): 0.0006 s⁻¹ | kobs(slow) [min^–1] (NTS1R [2]; suspended CHO-hNTS1R cells, biphasic exponential fit): 0.051 ± 0.001 ^b min^–1 | kon (NTS1R [2]; suspended CHO-hNTS1R cells, calculated from koff, kobs(fast) and ligand concentration, read-out: kon(fast) [min^–1 nM^–1] (converted)): 1.35e+07 M⁻¹ s⁻¹ | Kd (NTS1R [2]; suspended CHO-hNTS1R cells, koff/kon(fast), read-out: Kd(kin)): 0.044 ± 0.02 nM | kobs(fast) [min^–1] (NTS1R [2]; suspended CHO-hNTS1R cells, monophasic fit of initial association phase, 1.8 nM [^3H]13 or […] [^3H]18): 1.5 ± 0.3 ^a min^–1 | Proportion of fast kinetic component (association) (NTS1R [2]; suspended cells): 21% | Proportion of slow kinetic component (association) (NTS1R [2]; suspended cells): 79%
